Four compounds from patent publication US12227501B2, “3-amino-2-[2-(acylamino)pyridin-4-yl]-1,5,6,7-tetrahydro-4h-pyrrolo[3,2-c]pyridin-4-one as CSNK1 inhibitors” (Bayer Aktiengesellschaft, priority 2019, dated 2025) can be followed below.

Common to all, as to format: biochemical
Assay [1] addresses T1, human CSNK1A1 (Homo sapiens (Human), UniProt P48729). Put plainly: CSNK1A1 Assay 1 (ADP-Glo, 1 μM ATP). The note with it: read-out: CSNK1A1 Assay 1 IC50 [mol/l] (median). Here is the method: CSNK1A1-inhibitory activity of compounds of the present invention in presence of 1 μM adenosine-tri-phosphate (ATP) was quantified employing the CSNK1A1 assay as described in the following paragraphs. In essence, the enzyme activity is measured by quantification of the adenosine-di-phosphate (ADP), which is generated as a co-product of the enzyme reaction, via the “ADP-Glo™ Kinase Assay” kit from the company Promega. This detection system works as follows: In a first step the ATP not consumed in the kinase reaction is quantitatively converted to cAMP employing an adenylate cyclase (“ADP-Glo-reagent”), then the adenylate cyclase is stopped and the ADP generated in the kinase reaction converted to ATP which generates in a luciferase-based reaction a glow-luminescence signal (“Kinase Detection Reagent”). Recombinant fusion protein of N-terminal Glutathion-S-Transferase (GST) and full-length human CSNK1A1, expressed by baculovirus infected insect cells and purified via Glutathion affinity chromatography, was purchased from Life Technologies (product no. PV4174) and used as enzyme. As substrate for the kinase reaction the biotinylated peptide Btn-Ahx-[…] (C-terminus in amide form) was used which can be purchased e.g. from the company Biosyntan (Berlin-Buch, Germany).
For the assay 50 nl of a 100 fold concentrated solution of the test compound in DMSO was pipetted into a white 1536-well microtiter plate (Greiner Bio-One, Frickenhausen, Germany), 2 μL of a solution of CSNK1A1 in aqueous assay buffer [50 mM HEPES pH 7.5, 10% (v/v) glycerol, 10 mM MgCl2, 50 mM NaCl, 1 mM dithiothreitol, 0.01% (w/v) bovine serum albumin, 0.01% (v/v) Triton X-100] were added and the mixture was incubated for 15 min at 22° C. to allow pre-binding of the test compounds to the enzyme before the start of the kinase reaction. […] The concentration of CSNK1A1 was adjusted depending of the activity of the enzyme lot and was chosen appropriate to have the assay in the linear range, a typical concentration is 0.15 ng/μL. The reaction was stopped by the addition of 2.5 μL of “ADP-Glo-reagent” (1:1.5 fold diluted with water) and the resulting mixture was incubated at 22° C. for 1 h to convert the ATP not consumed in the kinase reaction completely […]. Subsequently 2.5 μL of the “kinase detection reagent” (1.2 fold more concentrated than recommended by the producer) were added, the resulting mixture was incubated at 22° C. for 1 h and then the luminescence measured with a suitable measurement instrument (e.g. Viewlux™ from Perkin-Elmer). The amount of emitted light was taken as a measure for the amount of ADP generated and thereby for the activity of the CSNK1A1.

Assay [2] deals with T1, human CSNK1A1. The assay is described as follows: CSNK1A1 Assay 2 (ADP-Glo, 1 μM ATP). The note with it: substrate biotin-Ahx-KRRRAL-pS-VASLPGL, read-out: CSNK1A1 Assay 2 IC50 [mol/l] (median). In a few lines: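 Full-length human CSNK1A1 as an N-terminal GST fusion (baculovirus/insect cells) with biotinylated peptide substrate biotin-Ahx-KRRRAL-pS-VASLPGL and 1 μM ATP, in HEPES pH 7.5 buffer. Compounds were pre-incubated with enzyme (~0.0375 ng/μL) for 15 min at 22 °C. Generated ADP was read by ADP-Glo luminescence as the activity measure.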

In assay [3] the target is wild-type Epidermal Growth Factor Receptor (EGFR) (Homo sapiens (Human), UniProt P00533). The assay is described as follows: WT-EGFR Kinase Assay (TR-FRET, 2 mM ATP).
Chain of wild-type Epidermal Growth Factor Receptor (EGFR) (P00533 669-1210): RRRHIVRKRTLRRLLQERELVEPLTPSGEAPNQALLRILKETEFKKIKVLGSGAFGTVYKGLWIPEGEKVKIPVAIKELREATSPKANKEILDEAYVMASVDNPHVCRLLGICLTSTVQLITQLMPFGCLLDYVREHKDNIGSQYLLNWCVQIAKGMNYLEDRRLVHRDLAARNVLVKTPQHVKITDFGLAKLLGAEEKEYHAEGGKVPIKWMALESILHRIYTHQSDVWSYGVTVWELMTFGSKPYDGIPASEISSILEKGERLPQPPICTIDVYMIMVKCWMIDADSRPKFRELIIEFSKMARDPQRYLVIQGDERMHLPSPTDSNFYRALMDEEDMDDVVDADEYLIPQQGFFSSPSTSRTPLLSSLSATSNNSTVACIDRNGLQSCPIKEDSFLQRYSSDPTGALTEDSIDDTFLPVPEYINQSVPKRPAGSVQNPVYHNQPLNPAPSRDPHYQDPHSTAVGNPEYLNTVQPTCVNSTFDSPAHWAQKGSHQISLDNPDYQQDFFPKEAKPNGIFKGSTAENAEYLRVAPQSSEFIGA
Setting [4] is: EGFR Wildtyp- 2 mM ATP IC50 [mol/l] (median).
Where [5] appears, read: substrate Btn-Ahx-SGSEGDSESGEEEG
Setting [6] is: read-out: EGFR Wildtyp- 2 mM ATP IC50 [mol/l] (median).

Structures are written as SMILES. Where “and” joins values, the source holds several entries; their conditions need not be identical. Equal entries are not always repeated. Where two headings read alike, the source gives them in different places.

T1 sequence (P48729 whole entry): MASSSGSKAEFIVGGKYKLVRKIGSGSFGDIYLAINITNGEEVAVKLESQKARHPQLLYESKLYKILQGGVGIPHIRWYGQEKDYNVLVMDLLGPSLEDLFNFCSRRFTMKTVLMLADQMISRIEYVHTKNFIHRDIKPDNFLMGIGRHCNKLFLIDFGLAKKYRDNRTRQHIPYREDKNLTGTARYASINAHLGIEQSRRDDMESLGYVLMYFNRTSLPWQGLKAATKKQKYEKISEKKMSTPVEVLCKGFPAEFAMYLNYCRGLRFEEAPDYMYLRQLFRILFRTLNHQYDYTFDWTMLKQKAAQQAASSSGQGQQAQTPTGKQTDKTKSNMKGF

With `C[C@H](C(=O)Nc1cc(-c2[nH]c3c(c2Nc2ccccc2)C(=O)N(C)CC3)ccn1)c1ccc(F)cc1` (single isomer, unassigned) [Example 5], the results for the IC50 in assay [1] (substrate Btn-Ahx-[…]) and in assay [2] were 3.62 nM and 4.45 nM, respectively.
With `C[C@@H](C(=O)Nc1cc(-c2[nH]c3c(c2Nc2ccccc2)C(=O)N(C)CC3)ccn1)c1ccc(F)cc1` (single isomer, unassigned) [Example 6], the IC50 in assay [1] (substrate Btn-Ahx-[…]) is 33.3 nM; in assay [2] it was 44 nM; in assay [3] (setting [4]), 16.1 µM and 15.6 µM and 18.2 µM and > 20 µM (2×) and 15.9 µM and 17.1 µM.
In the case of `CN1CCc2[nH]c(-c3ccnc(NC(=O)Cc4ccc(F)cc4)c3)c(Nc3ccccc3)c2C1=O` [Example 1, N-[4-(3-anilino-5-methyl-4-oxo-4,5,6,7-tetrahydro-1H-pyrrolo[3,2-c]pyridin-2-yl)pyridin-2-yl]-2-(4-fluorophenyl)acetamide], the values for the IC50 in assay [1] (setting [5]), in assay [2] and in assay [3] (setting [6]) were 2.54 nM, 1.97 nM and 1200 nM, respectively.
`CC(C(=O)Nc1cc(-c2[nH]c3c(c2Nc2ccccc2)C(=O)N(C)CC3)ccn1)c1ccc(F)cc1` (stereo not drawn) [Example 4, N-[4-(3-anilino-5-methyl-4-oxo-4,5,6,7-tetrahydro-1H-pyrrolo[3,2-c]pyridin-2-yl)pyridin-2-yl]-2-(4-fluorophenyl)propanamide]: the IC50 in assay [1] (setting [5]) is 11.2 nM; in assay [2] it was 5.49 nM; in assay [3] (setting [4]), 12600 nM and 11200 nM; in assay [3] (setting [6]) it was greater than 20000 nM.
